# Source: article PMC9569447 (International Journal of Molecular Sciences, 2022)
# Entries after “also recorded” stand apart in the source; their conditions may differ. Numbered stars: 1 amine (or outer) side, 2 acyl side, 3 side chain; on linkers, the order of the positions; unused ones are H or OH. Bridge positions count the residues as written; N and C are the ends. Square brackets hold non-standard residues; d marks the D form. Side chains are listed from the residue outwards. Peptide text beside a SMILES is read from it. * marks the point of attachment. PEG8 = NCCOCCOCCOCCOCCOCCOCCOCCOCCC(=O)O; Palmitoyl = CCCCCCCCCCCCCCCC(=O)*; hCys = N[C@@H](CCS)C(=O)O; X1 = O=C(CC[*:2])[*:1]
# Experiments:
# [1] = test system: diet-induced obese (DIO) Sprague Dawley rats; assay: Dose escalation study: body weight, food and water intake; type: in vivo, rat
# Description: Male DIO Sprague Dawley rats (n = 4) were fed 60% HF diet (formula: D12492; Research Diets, Inc., New Brunswick, NJ, USA; 5.21 kcal/g) for 16 weeks prior to the start of the study. Rats were changed to being singly housed and allowed to acclimate for at least one week prior to the start of this study. Animals averaged 844.15 ± 99.95 g at baseline. Baseline measures of body weight, food intake, and water intake were taken for 6 days before drug administration began. Doses for the dose escalation study included 1, 2, 5, 10, 20, 50, and 100 nmol/kg. Body weight, food and water intake were assessed just prior to the start of the dark cycle.
# UCP1 = assay: Gene expression of UCP1 in IWAT and IBAT (qRT-PCR); type: in vivo, rat
# Description: IWAT and IBAT were homogenized using a TissueLyser LT (Qiagen, Hilden, Germany). RNA was extracted from the tissue lysates using the RNeasy Lipid Mini Kit (mfg. # 74804; Qiagen, Hilden, Germany) and reverse transcribed using the high-capacity cDNA kit (mfg. # 4368814; Applied Biosystems, Waltham, MA, USA). qRT-PCR was completed on the mRNA samples using the Applied Biosystems StepOnePlus System (Applied Biosystems, Waltham, MA, USA). All samples were normalized to the cycle threshold value of 18S mRNA. The following TaqMan® probes (Applied Biosystems, Waltham, MA, USA) were used in this study: 18S (cat. # Hs99999901_s1), UCP1 (cat. # Rn00562126_m1), and Cox8b (cat. # Rn00562884_m1). Analysis was completed using the delta CT method.
# [2] = Pharmacokinetics after subcutaneous administration to rats; settings: sc, 300 nmol/kg
# Method: Whole blood samples were immediately centrifuged at 4 °C; separated plasma (~100 uL) was pipetted into micro centrifuge tubes, flash frozen on dry ice, and stored at −80 °C. Quantitative analysis plasma samples were performed by Alturas Analytics (Moscow, ID, USA) via peptide extraction from acidified plasma with acetonitrile followed by LC-MS/MS analysis.
# human V1a receptor = molecular target: T1, human V1a receptor (Homo sapiens, UniProt P37288); assay: In vitro functional assay at V1aR (cytosolic Ca2+ mobilization, fluorimetric); type: cell-based; settings: agonist activity, result in words
# T1 construct: expressed in transfected cells; host or cells: CHO
# Method: The cells were suspended in DMEM buffer (Invitrogen, Carlsbad, CA, USA) complemented with 0.1% FCS, then distributed in microplates at a density of 4.5 × 10^4 cells/well. The fluorescent probe (Fluo4 Direct, Invitrogen, Carlsbad, CA, USA) mixed with probenicid in HBSS buffer (Invitrogen, Carlsbad, CA, USA) complemented with 20 mM HEPES (Invitrogen; Carlsbad, CA, USA) (pH 7.4) was then added into each well and equilibrated with the cells for 60 min at 37 °C then 15 min at 22 °C. The assay plates were positioned in a microplate reader (CellLux, PerkinElmer, Waltham, MA, USA) followed by the addition of the test compound ASK2131, reference agonist or HBSS buffer (basal control), and the measurements of changes in fluorescence intensity which varies proportionally to the free cytosolic Ca^2+ ion concentration. For stimulated control measurements, AVP at 1 μM was added in separate assay wells. The results were expressed as a percent of the control response to 1 μM AVP. The standard reference agonist was AVP, which was tested in each experiment at several concentrations to generate a concentration-response curve from which its EC50 value was calculated.
# hOXTR = molecular target: T2, hOXTR (Homo sapiens, UniProt P30559); assay: In vitro functional assay at the OXT receptor (Ca2+ flux, fluorometric imaging plate reader); type: cell-based; settings: ratio of EC50 values hOXTR/hV2R
# T2 construct: expressed in transfected cells
# T2 sequence (P30559 1-389): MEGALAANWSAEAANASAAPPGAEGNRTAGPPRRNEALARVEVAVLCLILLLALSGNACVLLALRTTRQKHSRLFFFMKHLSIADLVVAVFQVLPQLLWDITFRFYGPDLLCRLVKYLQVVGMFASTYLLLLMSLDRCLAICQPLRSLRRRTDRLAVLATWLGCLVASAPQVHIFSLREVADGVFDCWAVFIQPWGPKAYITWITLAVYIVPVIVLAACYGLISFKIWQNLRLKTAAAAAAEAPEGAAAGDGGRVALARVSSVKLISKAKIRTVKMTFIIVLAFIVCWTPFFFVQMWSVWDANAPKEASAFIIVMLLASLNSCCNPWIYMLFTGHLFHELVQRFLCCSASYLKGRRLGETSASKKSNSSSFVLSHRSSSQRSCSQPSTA
# Method: In a typical experimental protocol, stably transfected Chinese hamster ovary (CHO) hOTR NFAT bLac cells were plated at a density of 10,000 cells/well in a 384-well plate in growth medium (Dulbecco’s modified Eagle’s medium + Glutamax (Thermo Fisher Scientific, Waltham, MA, USA), 10% dialyzed fetal bovine serum). The next day calcium-sensitive, fluo-4 dye (Invitrogen, Carlsbad, CA, USA) and probenecid (Invitrogen; 2.5 mM) was dissolved in 20 mL warm dye loading buffer (Hanks’ balanced salt solution with calcium and magnesium, 20 mM Hepes, pH 7.4) and added to each well. Plates were incubated for 60–120 min in a 37 °C cell incubator to allow cells to uptake the dye. […] After dye-loading, the cell plates were placed on the fluorometric imaging plate reader. A total of […] of test compound was added to the […] of dye on the cells, and intracellular Ca^2+ was monitored for 90 s. Intracellular Ca^2+ concentrations were calculated as the maximum increase over basal levels. Responses were normalized to control responses. Data were analyzed by curve fitting.
# [3] = male, Sprague Dawley, rat, plasma
# T1 sequence (P37288 whole entry): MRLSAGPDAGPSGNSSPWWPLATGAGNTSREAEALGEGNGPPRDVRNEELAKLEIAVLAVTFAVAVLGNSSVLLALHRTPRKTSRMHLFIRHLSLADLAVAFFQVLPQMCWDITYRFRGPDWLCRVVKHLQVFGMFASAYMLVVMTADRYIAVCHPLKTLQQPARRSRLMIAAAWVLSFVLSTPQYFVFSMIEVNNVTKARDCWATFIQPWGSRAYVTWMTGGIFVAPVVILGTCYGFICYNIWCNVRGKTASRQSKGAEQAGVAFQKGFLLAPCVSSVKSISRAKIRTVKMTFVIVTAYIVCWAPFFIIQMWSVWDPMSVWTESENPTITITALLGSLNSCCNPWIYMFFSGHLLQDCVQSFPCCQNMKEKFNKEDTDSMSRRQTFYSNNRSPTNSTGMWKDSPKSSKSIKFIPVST
structure (smiles),measurement,setting,value
CCCCCCCCCCCCCCCC(=O)NCCOCCOCCOCCOCCOCCOCCOCCOCCC(=O)NCCCC[C@H](NC(=O)CNC(=O)[C@@H]1CCSCCC(=O)N[C@@H](Cc2ccc(O)cc2)C(=O)N[C@@H]([C@@H](C)CC)C(=O)N[C@@H](CCC(N)=O)C(=O)N[C@@H](CC(N)=O)C(=O)N1)C(=O)NCC(N)=O [ASK2131] (YIQN[hCys]GK([PEG8-Palmitoyl])G-NH2; linker N-5 via X1),2-day averaged food intake reduction relative to baseline,"[1]; DIO rats, at doses < 2 nmol/kg and > 5 nmol/kg",20–25%
same,loss in body weight compared to baseline,"[1]; DIO rats, once daily sc doses rising every two days from 1 to 100 nmol/kg, average per rat over the treatment period",8.4%
same,decrease in body weight compared to baseline,"[1]; at 2 nmol/kg, after only four treatments",~ 4%
same,adverse response,"[1]; one rat with severe diarrhea was terminated and excluded, result in words",No other animals treated with ASK2131 showed any signs of an adverse response
same,water intake,"[1]; with increased dosing of ASK2131, result in words",not significantly different from baseline
same,"gene expression (UCP1, Cox8b) in comparison to the vehicle treated group","UCP1; IWAT and IBAT, result in words",none of the examined genes showed a significant response
same,"UCP1 expression in IBAT, mean rank difference (MRD), ASK2131 relative to OXT treatment","UCP1; interscapular brown adipose tissue, qRT-PCR normalized to 18S, p = 0.011",−12.5
same,"UCP1 expression in IWAT, mean difference (MD), ASK2131 relative to OXT treatment","UCP1; qRT-PCR normalized to 18S, 95% CI −4.23 to 0.42, p = 0.014",−2.32
same,Cmax,[2]; [3],276 nM
same,Tmax,[2]; [3],4 h
same,clearance,[2]; [3],1.2 mL/min/kg
same,Cmax (total maximal plasma concentration),"[2]; male lean Sprague Dawley rats, n = 5 per group, LC-MS/MS",276 nM
same,Tmax,"[2]; male lean Sprague Dawley rats, n = 5 per group, plasma, LC-MS/MS",4 h
same,V1aR activation,human V1a receptor,"did not display V1aR activation; also recorded: Neither molecule, ASK1476 or ASK2131, is active"
same,Ratio hOXTR/hV2R,hOXTR,3.06
